Calls of active or inactive are those of the source. How the calls were made is not given here.
Biological target: Caspase-6 (Homo sapiens) (UniProt P55212)
Experiment: human caspase-6 inhibitors, dose response, biochemical, VEID-R110 fluorescence, cherry-pick (AID 720632)
Settings: caspase-6, VEID-R110 fluorogenic substrate

Sequence of Caspase-6 (Homo sapiens) (P55212 24-179 limits assumed): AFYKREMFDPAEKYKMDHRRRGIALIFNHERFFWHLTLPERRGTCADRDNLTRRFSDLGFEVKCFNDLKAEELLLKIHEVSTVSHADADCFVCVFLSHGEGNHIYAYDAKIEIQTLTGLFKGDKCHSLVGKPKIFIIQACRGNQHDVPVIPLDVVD
Sequence of Caspase-6 (Homo sapiens) (P55212 194-293 limits assumed): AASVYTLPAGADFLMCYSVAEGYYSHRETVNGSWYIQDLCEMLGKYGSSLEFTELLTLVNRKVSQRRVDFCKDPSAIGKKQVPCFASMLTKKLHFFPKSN

| SMILES | activity change, negative = inhibition (at 26 µM (top of the series)) | also measured |
| --- | --- | --- |
| CC(OC(=O)c1n[nH]c2ccccc12)C(=O)Nc1ccccc1[N+](=O)[O-] (centres undefined) | inactive |  |
| OC[C@H]1[C@H](c2ccc(-c3ccc(F)cc3)cc2)[C@@H]2CN(Cc3cccnc3)CCCCN12 | inactive |  |
| CN1CC(=O)N2Cc3[nH]c4ccccc4c3C[C@H]2C1=O | inactive |  |
| Nc1cccnc1Oc1ccc(F)cc1F | inactive |  |
| COc1cc(N)c2ncccc2c1Cl | inactive |  |
| Cc1ccc([N+](=O)[O-])cc1NC(=O)C(C)N1CCCCC1 (centres undefined) | inactive |  |
| CCOC(=O)C1CCCN(S(=O)(=O)c2nc3nc(C)cc(C)n3n2)C1 (centres undefined) | inactive |  |
| CCOC(=O)C1(Cc2ccccc2C)CCCN(C(=O)CCc2cccnc2)C1 (centres undefined) | inactive |  |
| O=C(O)c1ccc(N2C(=O)CC(N3CCN(c4cccc(C(F)(F)F)c4)CC3)C2=O)cc1 (centres undefined) | inactive |  |
| O=C(Nc1cccc(F)c1)c1coc(=O)c(Br)c1 | inactive |  |
| CCC(=O)N1CCC1(C)C(=O)Nc1cccc2cccnc12 (centres undefined) | inactive |  |
| CCCCn1nnnc1C(CCSC)N1CCC(n2c(=O)[nH]c3ccccc32)CC1 (centres undefined) | inactive |  |
| COC(=O)C[C@@H]1CC[C@H](NC(=O)c2ccc3c(c2)OCO3)[C@@H](CO)O1 | inactive |  |
| O=C(Nc1ccc2c(c1)[C@H]1C[C@H](CC(=O)N3CCCCC3)O[C@@H](CO)[C@H]1O2)Nc1ccccc1F | inactive |  |
| O=C1[C@H]2[C@@H](c3ccccc3)N[C@]3(CCCN(CC4CCCCC4)C3=O)[C@H]2C(=O)N1Cc1ccccc1 | inactive |  |
| O=C(CCOc1ccccc1)N1CCN(S(=O)(=O)c2ccccc2F)CC1 | inactive |  |
| O=C(Nc1nc2ccc([N+](=O)[O-])cc2s1)c1ccncc1 | inactive |  |
| NNC(=O)CC1=NNC(=O)C1 | inactive |  |
| O=c1[nH]c2ccc(F)cc2[nH]c1=O | inactive |  |
| O=C1CC(NS(=O)(=O)c2cc(F)ccc2F)CN1c1cccc(F)c1 (centres undefined) | inactive |  |
| CO[C@@H]1CN(C)C(=O)c2ccc(NC(=O)c3ccccc3)cc2OC[C@@H](C)N(C(=O)C2CC2)C[C@@H]1C | inactive |  |
| Cn1c(C(=O)N2CCCC(Nc3ccc(F)cc3)C2)cc2ccccc21 (centres undefined) | inactive |  |

| SMILES | activity change, negative = inhibition (at 26 µM (top of the series)) | also measured |
| --- | --- | --- |
| COC(=O)C[C@H]1CC[C@@H]2[C@H](COc3ccc(NC(=O)c4cnccn4)cc3C(=O)N2C)O1 | inactive |  |
| CC(C)C(=O)N1CCN(c2ccccc2NC(=O)c2cccc3ccccc23)CC1 | inactive |  |
| CSCCC(NC(=O)COc1ccccc1)C(=O)N(C)CC(=O)Nc1c(C)cccc1C (centres undefined) | inactive |  |
| O=C(C[C@H]1C=C[C@H](NC(=O)c2ccccc2)[C@H](CO)O1)NCCc1ccncc1 | inactive |  |
| O=C(NNC(=O)c1ccccc1O)c1ccccc1O | inactive |  |
| C[CH2][Hg][S]c1ccccc1C(=O)O |  | AC50: 6.91 µM |
| CCC(C)Nc1nc2c(C)cccn2c(=O)c1C=Nc1ccc(OC)cc1 (centres undefined) | inactive |  |
| CN(C)c1ccc2c(c1)[C@@H]1C[C@@H](CC(=O)NCc3ccccn3)O[C@@H](CO)[C@@H]1O2 | inactive |  |
| O=C(C[C@@H]1C=C[C@H](NC(=O)C2CC2)[C@H](CO)O1)Nc1nccs1 | inactive |  |
| COc1ccc(N2C(=O)Cc3ccccc3C2=O)cc1 | inactive |  |
| COc1ccc(C(=O)N2CCN(CCCc3ccccc3)CC2)cc1OC | inactive |  |
| N[C@@H](Cc1cc(I)c(O)c(I)c1)C(=O)O | inactive |  |
| O=[N+]([O-])c1ccc(S(=O)(=O)N2CCC3(CC2)OCCN3S(=O)(=O)c2cccs2)cc1 | inactive |  |
| COc1ccccc1C(=O)Nc1ccc2c(c1)OC[C@@H](C)N(CC1CC1)C[C@@H](C)[C@H](OC)CN(C)C2=O |  | activity change, negative = inhibition (at 23.5 µM (top of the series)): inactive |
| CCCCN(C(=O)c1cccc(-n2cccc2)c1)c1c(N)n(CCCC)c(=O)[nH]c1=O | inactive |  |
| CCOC(=O)c1sc(C)c2c(=O)n(Cc3ccc(Cl)cc3)cnc12 | inactive |  |
| Cc1ccc(NC(=O)c2ccc([N+](=O)[O-])o2)cc1S(=O)(=O)N1CCOCC1 | inactive |  |
| COc1cc(Br)cc(CN2CCN(C/C=C/c3ccccc3)CC2)c1O | inactive |  |
| O=C(CN1C(=O)NC2(CCc3ccccc32)C1=O)Nc1c(Cl)cccc1Cl (centres undefined) | inactive |  |
| CCCC(=O)Nc1ccc2c(c1)OC[C@@H](C)N(Cc1ccc(F)cc1)C[C@@H](C)[C@@H](OC)CN(C)C2=O | inactive |  |
| CC1CCCCC1NS(=O)(=O)c1ccc(S(=O)(=O)N2CCN(CCC#N)CC2)cc1 (centres undefined) | inactive |  |
| O=C(N/N=C/c1ccc[nH]1)c1ccccc1O | inactive |  |

| SMILES | activity change, negative = inhibition (at 26 µM (top of the series)) | also measured |
| --- | --- | --- |
| C=CCNc1nc(Nc2cc(Cl)ccc2OC)nc(OC)n1 | inactive |  |
| COc1ccc(CCNC(=O)c2c(C)noc2C)cc1 | inactive |  |
| Cc1cc(C)c(NC(=O)COC(=O)c2ccc([N+](=O)[O-])s2)c(C)c1 | inactive |  |
| CN1C(=O)NC(=O)C(N=Nc2ccc(Cl)cc2)C1=O (centres undefined) | inactive |  |
| CC(C)NC(=O)C1(C)CCN1C(=O)c1ccc2c(c1)OCO2 (centres undefined) | inactive |  |
| Cc1ccc(S(=O)(=O)N(CC(=O)Nc2ccccc2C(=O)O)c2cccc(Cl)c2C)cc1 | inactive |  |
| CCC(=O)Nc1ccc2c(c1)OC[C@@H](C)N(C(=O)CC)C[C@@H](C)[C@H](OC)CN(C)C2=O |  | activity change, negative = inhibition (at 23.5 µM (top of the series)): inactive |
| CN1CCN(NC(=O)NC2CCCCC2)CC1 | inactive |  |
| CCCC(=O)n1nc(-c2cccnc2)nc1NCc1ccc(OC)cc1 | inactive |  |
| Cc1ccc2oc(C(=O)N(Cc3ccc(N(C)C)cc3)C3CCS(=O)(=O)C3)c(C)c2c1 (centres undefined) | inactive |  |
| CC(C)CN1CCC(CN2CCNC(=O)C2=O)CC1 | inactive |  |
| O=C(CCCCCn1c(=S)[nH]c2cc3c(cc2c1=O)OCO3)N1CCN(Cc2ccccc2)CC1 | inactive |  |
| O=C(N/N=C/c1ccc(O)cc1O)C(=O)N/N=C/c1ccc(O)cc1O | inactive |  |
| O=C(COC(=O)c1ccc([N+](=O)[O-])o1)Nc1ccc(F)cc1 | inactive |  |
| O=C(O)C1C=Cc2ccccc2N1C(=O)c1ccccc1 (centres undefined) (tested in a mixture with another compound) | inactive |  |
| CCC1=NN(C(=O)c2ccccc2O)C(O)(c2ccccc2)C1 (centres undefined) | inactive |  |
| CCCN1C[C@H](C)[C@H](OC)CN(C)C(=O)c2ccc(NC(=O)CC)cc2OC[C@@H]1C | inactive |  |
| O=C(NCCCO)c1cc([N+](=O)[O-])cc2c1C=Cc1ccccc1O2 | inactive |  |
| NN1C(=O)/C(=C2/Sc3ccccc3N2CCCS(=O)(=O)O)SC1=S | inactive |  |
| O=C(NCc1ccncc1)c1ccc(OCc2ccccc2)cc1 | inactive |  |

— PubChem BioAssay AID720632 (Broad Institute, 2013)
